According to US20210338846A1, “COMPETITIVE PROSTATE-SPECIFIC MEMBRANE ANTIGEN (PSMA) BINDING AGENTS FOR REDUCTION OF NON-TARGET ORGAN UPTAKE OF RADIOLABELED PSMA INHIBITORS FOR PSMA POSITIVE TUMOR IMAGING AND RADIOPHARMACEUTICAL THERAPY” (The Johns Hopkins University, priority 2018, published 2021):
Read-outs that look alike come from different tables or passages of the source.

What was measured:
[1] = tested on: PSMA+ PC-3 PiP and PSMA− PC-3 flu tumors; format: in vivo; conditions: early time points
[2] = tested on: PSMA+ PC-3 PiP and PSMA− PC-3 flu tumors
[3] = 1 h, co-injection 0.5 nmole YC-I-27
[4] = 4 h, co-injection 0.5 nmole YC-I-27
[5] = 24 h, co-injection 0.5 nmole YC-I-27

O=C(O)CC[C@H](NC(=O)N[C@@H](CCCCN(Cc1ccc(I)cc1)C(=O)CCCCNC(=O)CN1CCN(CC(=O)O)CCN(CC(=O)O)CCN(CC(=O)O)CC1)C(=O)O)C(=O)O [VK-02-90]
effect of competing inhibitor on uptake of [125I]VK-02-90-Lu in kidneys, salivary glands and lacrimal glands [1]: effective CI

O=C([O-])CN1CCN(CC(=O)[O-])CCN(CC(=O)NCCCCC(=O)N(CCCC[C@H](NC(=O)N[C@@H](CCC(=O)O)C(=O)O)C(=O)O)Cc2ccc([211At])cc2)CCN(CC(=O)[O-])CC1.[Lu+3] [[^211At]VK-02-90-Lu]
Biodistribution: Blood ([2]; 1 h, No CI): 0.8 ± 0.2 % injected dose/gram
Biodistribution: Flu tumor ([2]; 1 h, No CI): 0.4 ± 0.2 % injected dose/gram
Biodistribution: Lacrimal gland ([2]; 1 h, No CI): 0.8 ± 0.9 % injected dose/gram
Biodistribution: PiP tumor ([2]; 1 h, No CI): 31 ± 5 % injected dose/gram
Biodistribution: Salivary gland ([2]; 1 h, No CI): 0.5 ± 0.2 % injected dose/gram
Biodistribution: kidneys ([2]; 1 h, No CI): 90 ± 43 % injected dose/gram
Biodistribution: spleen ([2]; 1 h, No CI): 2.5 ± 0.9 % injected dose/gram
Biodistribution: stomach ([2]; 1 h, No CI): 0.4 ± 0.1 % injected dose/gram
Biodistribution: Blood [2, 3]: 0.5 ± 0.1 % injected dose/gram
Biodistribution: Flu tumor [2, 3]: 0.4 ± 0.1 % injected dose/gram
Biodistribution: Lacrimal gland [2, 3]: 0 % injected dose/gram
Biodistribution: PiP tumor [2, 3]: 25 ± 4 % injected dose/gram
Biodistribution: Salivary gland [2, 3]: 0.4 ± 0.2 % injected dose/gram
Biodistribution: kidneys [2, 3]: 2.2 ± 0.6 % injected dose/gram
Biodistribution: spleen [2, 3]: 0.3 ± 0.4 % injected dose/gram
Biodistribution: stomach [2, 3]: 0.4 ± 0.2 % injected dose/gram
Biodistribution: Blood ([2]; 4 h, No CI): 0.1 ± 0.03 % injected dose/gram
Biodistribution: Flu tumor ([2]; 4 h, No CI): 0.1 ± 0.1 % injected dose/gram
Biodistribution: Lacrimal gland ([2]; 4 h, No CI): 0.3 ± 1.1 % injected dose/gram
Biodistribution: PiP tumor ([2]; 4 h, No CI): 17 ± 5 % injected dose/gram
Biodistribution: Salivary gland ([2]; 4 h, No CI): 0.2 ± 0.1 % injected dose/gram
Biodistribution: kidneys ([2]; 4 h, No CI): 2.1 ± 0.6 % injected dose/gram
Biodistribution: spleen ([2]; 4 h, No CI): 0 % injected dose/gram
Biodistribution: stomach ([2]; 4 h, No CI): 0.3 ± 0.2 % injected dose/gram
Biodistribution: Blood [2, 4]: 0.2 ± 0.1 % injected dose/gram
Biodistribution: Flu tumor [2, 4]: 0.0 ± 0.04 % injected dose/gram
Biodistribution: Lacrimal gland [2, 4]: 0 % injected dose/gram
Biodistribution: PiP tumor [2, 4]: 19 ± 5 % injected dose/gram
Biodistribution: Salivary gland [2, 4]: 0.3 ± 0.2 % injected dose/gram
Biodistribution: kidneys [2, 4]: 0.7 ± 0.1 % injected dose/gram
Biodistribution: spleen [2, 4]: 0.8 ± 0.5 % injected dose/gram
Biodistribution: stomach [2, 4]: 0.4 ± 0.05 % injected dose/gram
Biodistribution: Blood ([2]; 24 h, No CI): 0 % injected dose/gram
Biodistribution: Flu tumor ([2]; 24 h, No CI): 0 % injected dose/gram
Biodistribution: Lacrimal gland ([2]; 24 h, No CI): 0 % injected dose/gram
Biodistribution: PiP tumor ([2]; 24 h, No CI): 9.5 ± 1.0 % injected dose/gram
Biodistribution: Salivary gland ([2]; 24 h, No CI): 0 % injected dose/gram
Biodistribution: kidneys ([2]; 24 h, No CI): 0.02 ± 0.02 % injected dose/gram
Biodistribution: spleen ([2]; 24 h, No CI): 0 % injected dose/gram
Biodistribution: stomach ([2]; 24 h, No CI): 0 % injected dose/gram
Biodistribution: Blood [2, 5]: 0.03 ± 0.3 % injected dose/gram
Biodistribution: Flu tumor [2, 5]: 0.2 ± 0.3 % injected dose/gram
Biodistribution: Lacrimal gland [2, 5]: 0 % injected dose/gram
Biodistribution: PiP tumor [2, 5]: 18 ± 8 % injected dose/gram
Biodistribution: Salivary gland [2, 5]: 0 % injected dose/gram
Biodistribution: kidneys [2, 5]: 0.4 ± 0.5 % injected dose/gram
Biodistribution: spleen [2, 5]: 02.5 ± 4.3 % injected dose/gram
Biodistribution: stomach [2, 5]: 0.4 ± 0.7 % injected dose/gram
